What all share (assay type): in vivo
The subject of one data set is TGF-betal protein. The data set is described as follows: TGF-betal protein levels in bone marrow supernatants and serum by ELISA. The note with it: rats. The method, then:
(§1) The toxicity of the compound of Example 2 was evaluated in rats treated orally with 30, 60, 120, or 200 mg/kg/day of the compound of Example 2, water, or vehicle (containing 80% propylene glycol, 5% cremophor, and 30-mg/ml povidone) for 4 weeks given in 2 divided doses at 8 hours apart. Reversibility of drug-induced changes was determined 4 and 8 weeks following drug withdrawal. The pathogenesis of the bone changes was evaluated in a study in rats treated with 200 mg/kg/day for 3 or 7 days. TGF-betal protein levels in bone marrow supernatants and serum were determined using ELISA at the end of each of the dosing period. Toxicity was evaluated using clinical, hematological, biochemical, and pathologic end points.

Data set [1] has as its system rats. Briefly: Pathogenesis of the bone changes, rats treated for 3 or 7 days. As to conditions: oral. As to the method:
as §1

Data set [2] deals with rats. The data set is described as follows: 4-week oral toxicity study in rats with 4 and 8 week recovery. The method, then: as §1

Turning to `CC(=S)NC[C@H]1CN(c2ccc(N3CC[S+]([O-])CC3)c(F)c2)C(=O)O1` [Example 2, (S)-N-[[3-[3-Fluoro-4-(4-thiomorpholinyl)phenyl] -2-oxo-5-oxazolidinyl]methyl]thio-acetamide, thiomorpholine S-oxide], in the data set with TGF-betal protein (Day 3, ELISA), the “Serum TGF-beta I” value is listed as “slightly but significantly decreased” and the “TGF-betal in marrow supernatants” value is reported as “modestly but significantly increased”. In addition, in the data set with TGF-betal protein (Day 7 or 28, ELISA), the “TGF-betal in marrow supernatants” value is “not on Day 7 or 28”. Also, the “onset of hyperostosis (osteoblast proliferation, osteoid deposition)” value with rats [1] (200 mg/kg/day for 3 or 7 days) is recorded as “became evident by Day 7”. For the same compound, the “osseous changes on Day 3” value in the data set with rats [1] (200 mg/kg/day, Day 3) is “no significant osseous changes”. Further, the “persistence of newly formed bone spicules after drug withdrawal” value in the data set on rats [2] (4 and 8 weeks after drug withdrawal) was “still present after 4 and 8 weeks of drug withdrawal”. The bone marrow changes entry with rats [2] (oral) is reported as “did not show changes other than hypocellularity related to hematopoietic suppression”. Also, in the data set on rats [2] (oral, 120 and 200 mg/kg/day), the “bone mass and density of trabecular (spongy) bone of sternum, femur/tibia, vertebrae, basal cranium” value was “caused an increase in bone mass and density (hyperostosis)”; the “endosteal cortical bone formation” value is recorded as “occurred rarely”; the toxic effects result was “anorexia, weight loss, GI effects, hematopoietic suppression and lymphoid depletion”. In addition, in the data set with rats [2] (oral, Day 28), the “marrow cavity histology at Day 28” value is listed as “marrow cavities were traversed by abundant normal looking trabecular bone”. For the same compound, the clinical tolerability result with rats [2] (oral, all doses but 200 mg/kg/day (30, 60, 120 mg/kg/day), 4 weeks, 2 divided doses) is “well tolerated clinically”.

These data come from patent US20020010341A1, “Use of thioamide oxazolidinones for the treatment of bone resorption and osteoporosis” (priority 2000, published 2002).
